Read-outs that look alike come from different tables or passages of the source.
Assays:
CHO cells (cell line A) = conditions: fresh Medium A supplemented with formate at 0, 2, 4 and 6 mM, growth monitored for 5 or 6 days, FIG. 3B
Experimental: CHO cells (cell line A or cell line B) producing a recombinant antibody were inoculated at low cell densities (0.1 E6 cells/mL) in various conditions in triplicates in 6-well plate cultures. The working volume for each well on day 0 was 4 mL. Cell line A was inoculated either in fresh Medium A or fresh Medium A supplemented with formate at various concentrations. Cell line B was inoculated either in fresh Medium A or fresh Medium A supplemented with glycerol at various concentrations. The concentrations tested for formate were [0, 2, 4 and 6 mM] and for glycerol were [0, 2 and 4 mM]. The 6-well plates were incubated on a shaking platform in 36.5C and 5% carbon dioxide. Cell growth in all the conditions was monitored for 5 or 6 days.

CHO cells (cell line B) = experiment: Effect of glycerol on growth (viable cell density) of CHO cells in 6-well plate culture; type: cell-based, Chinese hamster; conditions: fresh Medium A supplemented with glycerol at 0, 2 and 4 mM, growth monitored for 5 or 6 days, FIG. 3A

Compound	concentration at which cell growth was suppressed (CHO cells (cell line A))	concentration at which cell growth was suppressed (CHO cells (cell line A); listed as Formate)	concentration at which cell growth was suppressed (CHO cells (cell line B))	concentration at which cell growth was suppressed (CHO cells (cell line B); listed as Glycerol)
O=CO [formate]	higher than 2 mM	≥ 2 mM		
OCC(O)CO [glycerol]			higher than 2 mM	≥ 2 mM

From US20220073942A1, “Cells with reduced inhibitor production and methods of use thereof” (PFIZER INC., priority 2018, published 2022)
